Experimental data: patent US20260374766A1, “METHODS FOR TREATING CANCER” (Antares Therapeutics, Inc., priority 2022, published 2026)
Where two headings read alike, the source gives them in different places.

Assays:
H1299 p53 Y220C = test: Cell Proliferation Assay (CellTiter-Glo, CTG), H1299 p53 Y220C (NClH1299-inducible p53 Y220C); assay type: cell-based; conditions: Homo sapiens, NCI-H1299, 120 h, CellTiter-Glo, 5 days
Description: (§1) Inducible p53 Y220C and R273H constructs (Tet-One inducible expression system; Takara) were stably expressed in NClH1299 cells by lentiviral transduction. NUGC3, A549, BxPC3, T3M4, HuH7, HCC2935, MFE296, NClH1299, NClH1299-inducible p53 Y220C, and NClH1299-inducible p53 R273H cell lines were used for cell proliferation assay. 250-500 cells were seeded in each well of 384 plate and then compounds were dispensed into each well using Echo or Tecan. After 5 days of incubation, equal volume of CellTiter-Glo reagent (G7570; Promega) was added into each well and the plate was incubated at room temperature for 10 minutes with shaking. The luminescent signal was measured by PheraStar microplate reader and IC50 was calculated.

[1] = biological target: T1, p53 Y220C mutant protein (amino acid residues 94-293) (Homo sapiens, UniProt P04637, Y220C); test: Surface Plasmon Resonance (SPR) assay, Kd_kinetic; assay type: binding; conditions: SPR, p53 Y220C, read-out: SPR P53 Y220C KD kinetic
T1 construct: p53 Y220C mutant protein (amino acid residues 94-293)
Description: Surface Plasmon Resonance (SPR) Assay Protocol
SPR experiments were performed on a Biacore 8K instrument. […] The running buffer contained 50 mM Tris, pH 7.5, 100 mM NaCl, 1 mM DTT, 0.01% Brij35, 0.05% Tween-20 and 1% DMSO. The assay temperature was maintained at 16 or 20 °C and data were fit into the 1:1 binding model using the Biacore Insight Evaluation software.

p53 Y220C = p53 Y220C (Homo sapiens, UniProt P04637, Y220C); test: Luciferase Reporter Assay (Luc), p53 response element, NClH1299 cells with inducible p53 Y220C; assay type: cell-based; conditions: luciferase reporter, NClH1299 inducible p53 Y220C, 6 hour; for AC50: read-out: Luc P53 Y220C AC50
Description: Luciferase Reporter Assay Protocol
The cells were then used for p53 reporter assay. 5,000 cells were seeded in each well of 384 plate and cultured in 0.5 ug/mL doxycycline (D3072; Sigma) containing medium for 24 hours before compound treatment. After 6 hour of compound treatment, equal volume of One-Glo reagent (E6110; Promega) was added to each well and the plate was incubated for 5 minutes with shaking at room temperature. The luciferase activity was immediately measured with PheraStar microplate reader.

H1299 p53 R273H = test: Cell Proliferation Assay (CellTiter-Glo, CTG), H1299 p53 R273H (NClH1299-inducible p53 R273H); assay type: cell-based; conditions: Homo sapiens, NCI-H1299, 120 h, CellTiter-Glo, 5 days
Description: as §1

NUGC3 p53 Y220C = test: Cell Proliferation Assay (CellTiter-Glo, CTG), NUGC3 p53 Y220C; assay type: cell-based; conditions: Homo sapiens, NUGC-3, 120 h, CellTiter-Glo, 5 days
Description: as §1

[2] = 10 uM tool compound as positive control
[3] = NClH1299-inducible p53 Y220C cells
[4] = NClH1299-inducible p53 R273H cells

T1 sequence (P04637 94-293, stated change not applied): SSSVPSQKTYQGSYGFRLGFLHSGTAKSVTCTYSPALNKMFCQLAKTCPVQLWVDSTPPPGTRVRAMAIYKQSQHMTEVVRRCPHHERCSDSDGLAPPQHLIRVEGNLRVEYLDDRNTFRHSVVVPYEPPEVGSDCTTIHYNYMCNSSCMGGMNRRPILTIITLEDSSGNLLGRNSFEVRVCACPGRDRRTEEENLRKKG

SMILES | IC50 (H1299 p53 Y220C; H1299 p53 Y220C) [nM] | Kd ([1]; kinetic KD) [nM] | Emax (p53 Y220C; [2]) [%] | AC50 (p53 Y220C) [nM] | IC50 (H1299 p53 R273H; H1299 p53 R273H) [nM] | IC50 (NUGC3 p53 Y220C; NUGC3 p53 Y220C) [nM] | IC50 (H1299 p53 Y220C; [3]) [nM] | Kd [1] [nM] | AC50 (p53 Y220C; AC50) [nM] | Emax (p53 Y220C; Emax) [%] | IC50 (H1299 p53 R273H; [4]) [nM] | IC50 (NUGC3 p53 Y220C; NUGC3 cells) [nM]
CNC(=O)c1ccc(NCC#Cc2nn3c(N[C@@H]4CCN(C)C[C@@H]4F)ccnc3c2SC(F)(F)F)c(OC)c1 [Example 205] | > 3000 | 10 to 100 | < 70 | > 3000 | ≥ 10000 | > 3000 |  |  |  |  |  | 
CNC(=O)c1ccc(OC)c(NCC#Cc2cc3c(N[C@@H]4CN(C)C[C@@H]4F)nccn3c2SC(F)(F)F)c1 [Example 208] | < 750 | < 10 | > 90 | < 750 | ≥ 10000 | < 750 |  |  |  |  |  | 
CNC(=O)c1ccc(OC)c(NCC#Cc2cc3c(N[C@@H]4CNC[C@@H]4F)nccn3c2SC(F)(F)F)c1 [Example 209] | 750 to 1500 | < 10 | > 90 | < 750 | ≥ 10000 | < 750 |  |  |  |  |  | 
CNC(=O)c1ccc(OC)c(NCC#Cc2cc3c(N[C@@H]4CNC[C@@H]4F)nccn3c2SC(F)(F)F)n1 [Example 210] | 750 to 1500 | < 10 | 80 to 90 | 750 to 1500 | ≥ 10000 | 750 to 1500 |  |  |  |  |  | 
CNC(=O)c1ccc(OC)c(NCC#Cc2cc3c(N[C@@H]4CN(C)C[C@@H]4F)nccn3c2SC(F)(F)F)n1 [Example 211] | < 750 | < 10 | 80 to 90 | < 750 | ≥ 10000 | 750 to 1500 |  |  |  |  |  | 
CNC(=O)c1ccc(NCC#Cc2nn3c(N[C@@H]4CCN(C)C[C@@H]4F)nccc3c2SC(F)(F)F)c(OC)c1 [Example 214, 4-{[3-(7-{[(3S,4R)-3-fluoro-1-methylpiperidin-4-yl]amino}-3-[(trifluoromethyl)sulfanyl]pyrazolo[1,5-c]pyrimidin-2-yl)prop-2-yn-1-yl]amino}-3-methoxy-N-methylbenzamide] | < 750 | < 10 | > 90 | < 750 | ≥ 10000 | < 750 |  |  |  |  |  | 
CNC(=O)c1ccc(OC)c(NCC#Cc2nn3c(N[C@@H]4CCN(C)C[C@@H]4F)ccnc3c2SC(F)(F)F)c1 [Example 216, 3-{[3-(7-{[(3S,4R)-3-fluoro-1-methylpiperidin-4-yl]amino}-3-[(trifluoromethyl)sulfanyl]pyrazolo[1,5-a]pyrimidin-2-yl)prop-2-yn-1-yl]amino}-4-methoxy-N-methylbenzamide] | 1500 to 3000 | 10 to 100 | < 70 | > 3000 | < 5000 | 1500 to 3000 |  |  |  |  |  | 
COc1ccc(-c2ncc[nH]2)cc1NCC#Cc1nc2c(N[C@@H]3CCN(C)C[C@@H]3F)cccn2c1SC(F)(F)F [Example 220] | < 750 | < 10 | 70 to 80 | < 750 | < 5000 | < 750 |  |  |  |  |  | 
COc1cc(C(=O)NCCN(C)C)ccc1NCC#Cc1nc2c(N[C@@H]3CCOC[C@@H]3F)cccn2c1SC(F)(F)F [Example 221] | < 750 | < 10 | 70 to 80 | < 750 | < 5000 | < 750 |  |  |  |  |  | 
CNC(=O)c1ccc(C#N)c(NCC#Cc2nc3c(N[C@@H]4CCN(C)C[C@@H]4F)cccn3c2SC(F)(F)F)c1 [Example 224] |  |  |  |  |  |  | < 750 | < 10 | < 750 | > 90 | ≥ 10000 | < 750
CNC(=O)c1ccc(NCC#Cc2nc3c(N[C@@H]4CCOC[C@@H]4F)cccn3c2SC(F)(F)F)c(OCCN(C)C)c1 [Example 226] |  |  |  |  |  |  | 750 to 1500 | < 10 | 750 to 1500 | 70 to 80 | 5000 to 8000 | 750 to 1500
COc1ccc(C(=O)NCC2CN(C)C2)cc1NCC#Cc1nc2c(N[C@@H]3CCOC[C@@H]3F)cccn2c1SC(F)(F)F [Example 228] |  |  |  |  |  |  | > 3000 | < 10 | > 3000 | < 70 | ≥ 10000 | < 750
CNC(=O)c1ccc(NCC#Cc2nc3c(N[C@@H]4CCS(=O)(=O)C4)cccn3c2SC(F)(F)F)c(OC)c1 [Example 230] |  |  |  |  |  |  | 1500 to 3000 | 10 to 100 | 1500 to 3000 | 80 to 90 | ≥ 10000 | 1500 to 3000
